From PubChem BioAssay (NCI)
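Values below derive from 48-hour exposures of cells grown in 96-well plates, with endpoints linearly interpolated between the two concentrations bracketing the appropriate inhibition level. Here, GI50 denotes the concentration required for 50% inhibition of growth. The concentration for full growth arrest is given as TGI.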

Experiments:
Experiment in all cases: inhibition of tumour cell growth, NCI panel, 48 h
786-0 renal = system: 786-0 renal
A498 renal = system: A498 renal
A549 NSCLC = system: A549 NSCLC
ACHN renal = system: ACHN renal
BT-549 breast = system: BT-549 breast
CAKI-1 renal = system: CAKI-1 renal
CCRF-CEM leukemia = system: CCRF-CEM leukemia
COLO 205 colon = system: COLO 205 colon
DU-145 prostate = system: DU-145 prostate
EKVX NSCLC = system: EKVX NSCLC
HCT-116 colon = system: HCT-116 colon
HCT-15 colon = system: HCT-15 colon
HL-60(TB) leukemia = system: HL-60(TB) leukemia
HOP-62 NSCLC = system: HOP-62 NSCLC
HOP-92 NSCLC = system: HOP-92 NSCLC
HS 578T breast = system: HS 578T breast
HT29 colon = system: HT29 colon
IGROV1 ovarian = system: IGROV1 ovarian
K-562 leukemia = system: K-562 leukemia
KM12 colon = system: KM12 colon
LOX IMVI melanoma = system: LOX IMVI melanoma
M14 melanoma = system: M14 melanoma
MALME-3M melanoma = system: MALME-3M melanoma
MCF7 breast = system: MCF7 breast
MDA-MB-231 breast = system: MDA-MB-231 breast
MDA-MB-435 = system: MDA-MB-435
MOLT-4 leukemia = system: MOLT-4 leukemia
NCI-H226 lung = system: NCI-H226 lung
NCI-H23 lung = system: NCI-H23 lung

COc1cc2c3c(n(CCCNCCCCN)c(=O)c2cc1OC)-c1cc2c(cc1C3=O)OCO2
GI50 (786-0 renal): 2.27 µM
TGI (786-0 renal): 20.5 µM
GI50 (A498 renal): 5.07 µM
TGI (A498 renal): 21 µM
GI50 (A549 NSCLC): 5.48 µM
TGI (A549 NSCLC): 25 µM
GI50 (ACHN renal): 0.163 µM
TGI (ACHN renal): 16.6 µM
GI50 (BT-549 breast): 2.43 µM
TGI (BT-549 breast): 16.6 µM
TGI (CAKI-1 renal): 15 µM
TGI (CCRF-CEM leukemia): > 40.1 µM
GI50 (COLO 205 colon): 6.02 µM
TGI (COLO 205 colon): > 46 µM
GI50 (DU-145 prostate): 0.0764 µM
TGI (DU-145 prostate): 5.16 µM
GI50 (EKVX NSCLC): 18.6 µM
TGI (EKVX NSCLC): 42.7 µM
GI50 (HCT-116 colon): 1.85 µM
TGI (HCT-116 colon): 15.2 µM
GI50 (HCT-15 colon): 17.5 µM
TGI (HCT-15 colon): > 54.4 µM
GI50 (HL-60(TB) leukemia): 0.335 µM
GI50 (HOP-62 NSCLC): 0.836 µM
TGI (HOP-62 NSCLC): 32.5 µM
GI50 (HOP-92 NSCLC): 0.738 µM
TGI (HOP-92 NSCLC): 3.8 µM
GI50 (HS 578T breast): 3.76 µM
TGI (HS 578T breast): 16.1 µM
GI50 (HT29 colon): 4.57 µM
TGI (HT29 colon): > 100 µM
GI50 (IGROV1 ovarian): > 21.2 µM
TGI (IGROV1 ovarian): > 100 µM
GI50 (K-562 leukemia): 4.1 µM
TGI (K-562 leukemia): > 100 µM
GI50 (KM12 colon): 4.58 µM
TGI (KM12 colon): 21.7 µM
GI50 (LOX IMVI melanoma): 0.226 µM
TGI (LOX IMVI melanoma): 10.1 µM
GI50 (M14 melanoma): 9.19 µM
TGI (M14 melanoma): 27.6 µM
GI50 (MALME-3M melanoma): 1.66 µM
TGI (MALME-3M melanoma): 7.32 µM
GI50 (MCF7 breast): 0.0829 µM
TGI (MCF7 breast): 22.5 µM
GI50 (MDA-MB-231 breast): 2.86 µM
TGI (MDA-MB-231 breast): 9.13 µM
GI50 (MDA-MB-435): 6.11 µM
TGI (MDA-MB-435): 20.4 µM
TGI (MOLT-4 leukemia): > 19.6 µM
GI50 (NCI-H226 lung): 1.6 µM
TGI (NCI-H226 lung): 7.44 µM
GI50 (NCI-H23 lung): 1.63 µM
TGI (NCI-H23 lung): 10.7 µM
